# Measurements taken from patent US11034702B2, “Thienoisoquinolines and their derivatives for the treatment of cancer” (VALORBEC, SOCIÉTÉ EN COMMANDITE, priority 2016, dated 2021).
# Assays:
# [1] = test system: HeLa (cervical adenocarcinoma) cells; experiment: IC50 (viability) in HeLa cells; format: cell-based, human; conditions: for IC50: Homo sapiens, HeLa cells, cells printed in nM; for efficacy (effect on viability) in cancer cells vs. non-cancer cells: comparison of Table 3 IC50 values
# Procedure: (§1) 19 variants with different structural modifications have been made. […] In particular, it is shown that C75 causes death in multiple cancer cells with IC50 values in the 100 nM range, including breast cancers (MCF7, BT549), lung cancer (A549), colorectal cancer (HCT116) in addition to HeLa cells (cervical cancer).
# [2] = test system: BT549 (breast ductal carcinoma) cells; experiment: IC50 (viability) in BT549 cells; format: cell-based; conditions: Homo sapiens, BT-549
# Procedure: as §1
# [3] = test system: A549 (lung carcinoma) cells; experiment: IC50 (viability) in A549 cells; format: cell-based; conditions: Homo sapiens
# Procedure: as §1
# [4] = test system: MCF-7 (mammary gland carcinoma) cells; experiment: IC50 (viability) in MCF-7 cells; format: cell-based; conditions: Homo sapiens, MCF7
# Procedure: as §1
# [5] = test system: MCF-10A (mammary gland fibrocystic disease) non-cancer cells; experiment: IC50 (viability) in MCF-10A non-cancer cells; format: cell-based; conditions: Homo sapiens, MCF10A non-cancer cells
# Procedure: as §1
# HCT116 cells = experiment: Mitotic spindle phenotype and centrosome fragment distance in HCT116 cells; format: cell-based; conditions: HCT116, paclitaxel alone
# Procedure: (§2) FIG. 2A) is a line graph showing the percentage of HCT116 (p53−/−) cells, A549 cells, HeLa cells and H1299 cells in mitosis after treatment with various concentrations of C75 for one population doubling time. All of the cell lines show an increase in the proportion of mitotic cells after treatment with 200 nM C75. The bars indicate standard deviation. […] While the mitotic spindles were not dramatically altered by C75 in HFF1 cells, they were monopolar (as shown) or fragmented in the other cell types. […] The mitotic spindles were more strongly fragmented after C75 treatment in these cells vs. the cells in FIG. 2B). […] While mitotic spindles recovered bipolarity after removing nocodazole, they remained multipolar after removing C75. FIG. 2F) is a series of time-lapse images of a live HeLa cell expressing GFP:tubulin after treatment with C75 as shown in 2D) and 2E). The scale bar for all cells is 10 μm. FIG. 2G) is a schematic showing the putative target for C75. Healthy cells have two centrosomes that separate and form a bipolar spindle, while cancer cells have aberrant centrosomes that cluster to form ‘pseudo’ bipolar spindles, and C75 may target this process and their integrity.
# FIG. 3A) is a line graph showing the percentage of mitotic HeLa or HFF1 cells treated with a range of paclitaxel (Taxol™; tubulin-targeting drug) concentrations+/−C75 as indicated. The bars indicate standard deviation. FIG. 3B) is a series of bar graphs showing the proportion of HCT116 cells that have monopolar spindles, bipolar spindles with aligned chromosomes, bipolar spindles with misaligned chromosomes and multipolar/fragmented spindles after treatments as shown. Treatments include DMSO (control), varying concentrations of paclitaxel and/or varying concentrations of C75 after 7 hours. While treatment of HCT116 cells with 2.5 nM paclitaxel caused a threshold of mitotic spindle phenotypes, adding increasing concentrations of C75 in combination with 2.5 nM paclitaxel caused the phenotypes to progressively worsen. FIG. 3C) is bar graph showing the average distance between centrosome fragments in HCT116 cells after treatments as shown. While centrosome fragments moved closer together with increased concentrations of paclitaxel, they moved further apart with increased concentrations of C75. […] FIG. 3E) is a line graph showing the percentage of mitotic HeLa or HFF1 cells treated with a range of nocodazole concentrations+/−C75 as indicated. The bars indicate standard deviation. […]
# C75 was also tested for efficacy in different cancer cell lines. […] To further assess the role of C75 in affecting centrosomes, HeLa cells were treated with C75 for a short period of time (5 minutes), then C75 was removed and the cells were analyzed for spindle phenotypes (schematic in FIG. 2D). […]
# HeLa cells = experiment: Mitotic spindle / centrosome phenotype in HeLa cells (tubulin and DAPI staining, live imaging); format: cell-based, human
# Procedure: There were more rounded mitotic cells after C75 treatment in comparison to the control. FIG. 1B) is a line graph showing the percentage of HeLa and HFF1 cells in mitosis after treatment with various concentrations of C75 for 8 hours. The bars indicate standard deviation. FIG. 1C) is a series of images showing cells that were fixed and co-stained for tubulin (microtubules) and DAPI (DNA). Treatment of HeLa cells with 300 nM C75 caused the mitotic spindles to be disorganized, while they were not affected in HFF1 cells. […] The scale bar for the cells is 10 μm. FIG. 1D) is a cartoon schematic showing the key features of a metaphase cell.
# as §2
# FIG. 3A) is a line graph showing the percentage of mitotic HeLa or HFF1 cells treated with a range of paclitaxel (Taxol™; tubulin-targeting drug) concentrations+/−C75 as indicated. The bars indicate standard deviation. FIG. 3B) is a series of bar graphs showing the proportion of HCT116 cells that have monopolar spindles, bipolar spindles with aligned chromosomes, bipolar spindles with misaligned chromosomes and multipolar/fragmented spindles after treatments as shown. Treatments include DMSO (control), varying concentrations of paclitaxel and/or varying concentrations of C75 after 7 hours. While treatment of HCT116 cells with 2.5 nM paclitaxel caused a threshold of mitotic spindle phenotypes, adding increasing concentrations of C75 in combination with 2.5 nM paclitaxel caused the phenotypes to progressively worsen. FIG. 3C) is bar graph showing the average distance between centrosome fragments in HCT116 cells after treatments as shown. While centrosome fragments moved closer together with increased concentrations of paclitaxel, they moved further apart with increased concentrations of C75. […] FIG. 3E) is a line graph showing the percentage of mitotic HeLa or HFF1 cells treated with a range of nocodazole concentrations+/−C75 as indicated. The bars indicate standard deviation. FIG. 3F) is a series of images showing fixed HeLa cells after treatment with C75+/− nocodazole co-stained for tubulin, γ-tubulin and DNA (DAPI). […] Adding nocodazole to cells treated with 300 nM C75 caused mitotic spindle phenotypes to worsen and appear more similar to those after treatment with 600 nM C75. The scale bar for all cells is 10 μm. FIG. 3G) is a bar graph showing the percentage of phenotypes observed for metaphase HeLa cells treated with nocodazole or C75, or both for 20 minutes (n>15 per treatment).
# Spindle fragmentation only occurred after extensive microtubule depolymerization in colchicine-treated cells, while the spindle poles fragmented prior to changes in microtubules after C75 treatment. The scale bar for all cells is 10 μm.
# C75 was further tested and found to cause mitotic arrest in HeLa cells. […]
# [6] = test system: HFF1 (fibroblast) non-cancer cells; experiment: IC50 (viability) in HFF1 non-cancer cells; format: cell-based; conditions: Homo sapiens; HFF-1 non-cancer cells
# Procedure: as §1
smiles,measurement,setting,value
O=S(=O)(c1cccs1)N1Cc2ccccc2-c2sccc21 [Compound C87],IC50,[1],845 nM
same,IC50,[2],4.2 µM
same,IC50,[3],750 nM
same,IC50,[4],2460 nM
same,IC50,[5],539 nM
"CC(=O)O[C@H]1C(=O)[C@@]2(C)[C@H]([C@H](OC(=O)c3ccccc3)[C@]3(O)C[C@H](OC(=O)[C@H](O)[C@@H](NC(=O)c4ccccc4)c4ccccc4)C(C)=C1C3(C)C)[C@]1(OC(C)=O)CO[C@@H]1C[C@@H]2O [paclitaxel, reference compound]",change of centrosome fragment distance with increased paclitaxel concentration,HCT116 cells,significant decrease in fragment distance
"COC(=O)Nc1nc2ccc(C(=O)c3cccs3)cc2[nH]1 [nocodazole, reference compound]",spindle phenotype after drug wash-out,"HeLa cells; metaphase HeLa, 5 minutes treatment, washed out, imaged after 40 minutes",bipolar spindles reformed
same,"spindle phenotype, drugs alone vs. together","HeLa cells; metaphase HeLa, nocodazole or C75 or both, 20 minutes",bipolar spindles with weak microtubules
Cc1ccc(S(=O)(=O)N2Cc3ccccc3-c3sccc32)cc1 [Compound C91],IC50,[1],197 nM
same,efficacy (effect on viability) in cancer cells vs. non-cancer cells,[1],higher efficacy
same,IC50,[4],1020 nM
same,IC50,[6],920 nM
"COc1cc2c(c(OC)c1OC)-c1ccc(OC)c(=O)cc1[C@@H](NC(C)=O)CC2 [colchicine, reference compound]",spindle phenotype at lower concentrations,"HeLa cells; HeLa, 8 hours, 30 nM colchicine or 300 nM C75",bipolar spindles with less robust microtubules
same,spindle phenotype at higher concentrations,"HeLa cells; HeLa, 8 hours, 40 or 50 nM colchicine, 400 or 500 nM C75","fragmented spindles, but only after extensive loss of microtubules"
COc1ccc(S(=O)(=O)N2Cc3ccccc3-c3sc(I)cc32)cc1 [Compound C207],efficacy (effect on viability) in cancer cells vs. non-cancer cells,[1],higher efficacy
